# Results: US7812050B2, “Polymorphic form of fluoro-7-(2,2,2-trifluoroethoxy) phenoxathiin-10,10-dioxide” (CeNeRx BioPharma, Inc., priority 2006, dated 2010)
# Experiments:
# [1] = Dissolution temperature in 10% (v/v) water in acetic acid; type: physicochemical; conditions: ratio (w/v) of compound to solvent about 1.6 g: 10 mL
# [2] = Particle size by light diffraction (Sympatec HELOS, dry powder dispersion); type: physicochemical
# Description: Dispersion was performed on a sample of Form A of 3-fluoro-7-(2,2,2-trifluoroethoxy)phenoxathiin-10,10-dioxide produced accordance with the method presented in Example 4. Dispersion pressure of 0.5 to 2.0 bar was used to disperse the sample particles. Samples were analyzed by microscopy prior to particle size analysis to assess aggregation and estimate particle size, and without fracturing primary particles or causing aggregation. […] Particle size was measured using a Sympatec HELOS equipped with VIERI dry powder feeder unit, and sample measurements for optimization of jet pressure and repeatability were performed according to USP<429>, Method Validation Protocol ANC00756, and TM-1509 Rev.00 (draft).
smiles,measurement,setting,value
"O=S1(=O)c2ccc(F)cc2Oc2cc(OCC(F)(F)F)ccc21 [Form A, 3-fluoro-7-(2,2,2-trifluoroethoxy)phenoxathiin-10,10-dioxide]",temperature at which the form dissolves,[1],75-85 °C
same,x10,[2]; Dispersion Pressure 0.5 bar,3.05 μm
same,x50,[2]; Dispersion Pressure 0.5 bar,9.07 μm
same,x90,[2]; Dispersion Pressure 0.5 bar,24.49 μm
same,x10,[2]; Dispersion Pressure 1 bar,2.54 μm
same,x50,[2]; Dispersion Pressure 1 bar,7.96 μm
same,x90,[2]; Dispersion Pressure 1 bar,19.32 μm
same,x10,[2]; Dispersion Pressure 1.5 bar,2.21 μm
same,x50,[2]; Dispersion Pressure 1.5 bar,7.35 μm
same,x90,[2]; Dispersion Pressure 1.5 bar,17.1 μm
same,x10,[2]; Dispersion Pressure 2 bar,1.94 μm
same,x50,[2]; Dispersion Pressure 2 bar,6.88 μm
same,x90,[2]; Dispersion Pressure 2 bar,15.32 μm
